In test [1] the test system is GAL4-CREB. Kind of test: Luciferase reporter assay in RCLH-CREB stable cells treated with extracellular stimuli. The settings on record: 5 hours. The test is classed as cell-based, human.
For test [2], the system named is GAL4-CREB. The test is classed as cell-based, human. The following applies: transient assays, 10 ug/ml; data not shown.

Read-outs that look alike come from different tables or passages of the source.

The record followed here is patent US20050106582A1, “Compositions and methods utilizing stable reporter cell lines for detection of CREB-dependent signal transduction” (Stratagene, priority 1999, published 2005).

Consider `CCCCCCCCCCCCCC(=O)O[C@@H]1[C@@H](C)[C@@]2(O)[C@@H](C=C(CO)C[C@]3(O)C(=O)C(C)=C[C@@H]23)[C@@H]2C(C)(C)[C@]12OC(C)=O` [PMA, phorbol-12-myristate-13-acetate], for which the “stimulation of luciferase expression” value with GAL4-CREB [1] (in the presence of 100 uM forskolin) was “approximately 70 fold”. With adenylate cyclase toxin [AC toxin], the “effect on luciferase expression” value with GAL4-CREB [1] (50 ug/ml) was “approximately 7 fold”. Further, the “stimulation of luciferase expression” value in the test with GAL4-CREB [2] stood at 13 fold.
